Converted amounts (≈) assume the structure as drawn. “Also recorded” adds a separate entry of the source. Read-outs that look alike come from different tables or passages of the source. Bridge positions count the residues as written; N and C are the ends. Peptide text beside a SMILES is read from it.
Columns and labels:
P. aeruginosa CICC 21630 = experiment: MIC, microtiter broth dilution; assay type: cell-based, Pseudomonas aeruginosa; conditions: MHB, 10^5 CFUs/mL, 16–18 h at 37 °C
Experimental: (§1) The MIC value of PN7 against bacteria was determined by the microtiter broth dilution method. Briefly, bacteria grown to the exponential phase were diluted into MHB; subsequently, 90 μL of bacterial suspension (10^5 CFUs/mL) was mixed with 10 μL of different concentrations of PN7 in a sterilized 96-well microtiter plate (Nunc). MIC values were recorded after incubation for 16–18 h at 37 °C based on the lowest concentrations of peptides in which no visible bacterial growth was observed.

S. aureus CICC 10473 = experiment: MIC, microtiter broth dilution; assay type: cell-based, Staphylococcus aureus; conditions: MHB, 10^5 CFUs/mL, 16–18 h at 37 °C
Experimental: as §1

[1] = Stability in simulated intestinal fluid, MIC read-out; assay type: in vitro ADME
Experimental: (§2) The stability of peptide PN7 in SGF, SIF, and 25% or 50% mouse serum was carried out as previously described. A final concentration of 1280 μg/mL PN7 was prepared and incubated at 37 °C and then diluted twice. The MIC was determined.

[2] = system: Gram-negative bacteria such as Escherichia coli, Salmonella, and Pseudomonas aeruginosa; experiment: MIC against Gram-negative bacteria; assay type: cell-based; conditions: Gram-negative bacteria (Table 6)
Experimental: as §1

[3] = Thermal stability, MIC read-out; assay type: physicochemical; conditions: 1 h, 1280 μg/mL in physiological saline, triplicate
Experimental: PN7 dissolved in physiological saline solution was prepared into mother liquor with a concentration of 1280 μg/mL and incubated at different temperatures for 1 h. PN7 was dissolved in different pH buffers at 37 °C for 4 h. After double gradient dilution, MIC assays were used to detect the change in antibacterial activity.

[4] = Stability in simulated gastric fluid, MIC read-out; assay type: in vitro ADME
Experimental: as §2

S. aureus ATCC 43300 [5] = experiment: Salt stability, MIC read-out; assay type: cell-based, Staphylococcus aureus
Experimental: The influence of ions on PN7 activity was determined in two ways.
The first method of operation: PN7 was prepared into 1280 μg/mL mother liquor supplemented with 50, 100, 200, 300, and 500 mM NaCl (or KCl, MgCl2, CaCl2), then was diluted twice gradient by ddH2O. Then, 10 μL was added into 90 μL bacterial solution and cultured for 16–18 h to determine the MIC.
The second method of operation: 10 μL peptide solution and 10 μL NaCl (or KCl, MgCl2, CaCl2) solution with different concentrations were added to 80 μL bacterial solution. The final concentration of ions in the whole system was 50, 100, 150, 200, and 250 mM. The MIC against S. aureus ATCC 43300 was determined.

mouse erythrocytes = experiment: Hemolytic activity; assay type: cell-based; conditions: 128 μg/mL; fresh mouse red blood cells; 0.1% Triton X-100 = 100% hemolysis; mean of three biological replicates
Experimental: The hemolytic activity of PN7 was evaluated based on the amount of the released hemoglobin from erythrocyte suspensions of healthy mouse blood. Erythrocyte suspensions treated with 0.1% Triton X-100 and saline were used as 100% hemolysis and negative control, respectively.

[6] = Serum stability, MIC read-out; assay type: in vitro ADME; conditions: 25% or 50% mouse serum, 1280 μg/mL PN7, 37 °C, triplicate
Experimental: as §2

S. aureus E48 = assay type: cell-based, Staphylococcus aureus
Experimental: (§3) The experimental operation of the expression of the Plectasin variant in P. pastoris in well plates, shaking flasks, and 5 L level fermentation was performed as referenced in previous studies. Candidates were identified through three different levels of screening. Firstly, a large number of transformants were screened through well plates to induce expression and determined by the inhibition zone assay (against S. aureus ATCC 43300). Secondly, the transformants with obvious inhibition zones were sequenced to obtain protein sequence information, then induced expression at the shake level. The supernatant was collected and purified to obtain the target protein; the anti-Staphylococcus aureus activity of the protein was detected by a MIC assay. Finally, the codons of candidate sequences were optimized, the expression vector was reconstructed, the optimal transformers were obtained, and the high-density cultivation was performed in a 5 L fermenter. The final agent was determined by high protein yield and good activity (Figure 2).
as §1

S. aureus ATCC 25923 = assay type: cell-based, Staphylococcus aureus
Experimental: as §3, §1

S. aureus CVCC 546 = assay type: cell-based, Staphylococcus aureus
Experimental: as §3, §1

S. aureus ATCC 43300 [7] = experiment: Post antibiotic effect (PAE); assay type: cell-based, Staphylococcus aureus
From the text: The post-antibiotic effect reflects the inhibitory effect on the growth of pathogenic bacteria after short contact with drugs, which is related to the strength of the bactericidal activity of drugs. The test method of the PAE of PN7 against S. aureus ATCC 43300 refers to the descriptions in previous studies.

ICR mice = experiment: In vivo toxicity, intraperitoneal injection; parameters: species or system mouse
Experimental: ICR mice (6–8 weeks old, male, n = 5 per group; Charles River, Beijing, China) were intraperitoneally injected with PN7 (10 mg/kg, body weight) for 6 days, and the changes in mice behavior and body weight were recorded. At the same time, blood and organ tissues were collected for whole-blood cell and biochemical index analysis and H.E. staining.

S. aureus ATCC 43300 [8] = experiment: SEM morphological observation; assay type: cell-based, Staphylococcus aureus; conditions: 2× MIC, 30 min
Experimental: To further characterize the bactericidal effects of peptide, SEM was used to visualize the morphological changes. S. aureus ATCC 43300 cells were treated with PN7. Cells for SEM were processed as described previously.

[9] = system: Staphylococcus aureus ATCC 43300; experiment: microbe, parasite or virus in culture; assay type: cell-based
Experimental: as §3, §1

[10] = 1280 μg/mL PN7, 37 °C, then two-fold dilution, triplicate
[11] = microtiter broth dilution, MHB, 10^5 CFUs/mL, 16–18 h at 37 °C
[12] = 10 mg/kg daily intraperitoneal injection for 6 days, n = 5 per group

With `CC[C@H](C)[C@@H]1NC(=O)[C@H](CO)NC(=O)[C@H](CCCCN)NC(=O)[C@@H]2CSSC[C@@H](C(=O)N[C@@H](Cc3ccc(O)cc3)C(=O)O)NC(=O)[C@H](CCCCN)NC(=O)[C@@H]3CSSC[C@H](NC(=O)[C@H](CCCNC(=N)N)NC(=O)CNC(=O)[C@H](CC(=O)O)NC(=O)[C@H](CC(=O)O)NC(=O)[C@H](CCC(=O)O)NC(=O)[C@H](Cc4ccc(O)cc4)NC(=O)[C@H](Cc4c[nH]c5ccccc45)NC(=O)[C@@H]4CCCN4C(=O)CNC(=O)[C@H](CC(N)=O)NC(=O)[C@@H](NC(=O)CNC(=O)[C@H](Cc4ccccc4)NC(=O)CN)CSSC[C@H](NC(=O)[C@H](Cc4ccc(O)cc4)NC(=O)CNC(=O)CNC(=O)[C@H](CCCCN)NC(=O)[C@H](Cc4ccc(O)cc4)NC(=O)CNC(=O)[C@H](CCCCN)NC1=O)C(=O)N[C@@H](C)C(=O)N[C@@H](CCCCN)C(=O)NCC(=O)NCC(=O)N[C@@H](Cc1ccccc1)C(=O)N[C@@H](C(C)C)C(=O)N3)C(=O)N[C@@H](Cc1c[nH]cn1)C(=O)N[C@@H](CC(N)=O)C(=O)N[C@@H](Cc1c[nH]cn1)C(=O)N2` [PN7] (H-GFGCNGPWYEDDGRCHNHCKSIKGYKGGYCAKGGFVCKCY-OH; disulfide 4-30, 15-37, 19-39 (inferred); N-terminus and C-terminus assumed) the MIC (P. aeruginosa CICC 21630) was >128 µg/mL, the MIC (S. aureus CICC 10473) was 4 µg/mL (≈ 0.908 µM) and the “activity after incubation with simulated intestinal fluid (SIF)” value [1, 10] was “abolished the activity”. For the same molecule, the sensitivity to trypsin ([1]; Figure 7E) was “sensitive to trypsin”, the MIC [2] was “over 128 μg/mL” and the “thermal stability (antibacterial activity)” value ([3]; 20–80 °C) was “stable”. The “decrease of antibacterial activity” value ([3]; 100 °C) was 1 fold, the “activity after incubation with simulated gastric juice (SGF)” value [4, 10] was “conserved full activity” and the resistance to pepsin ([4]; Figure 7E) was “resistant to pepsin”. The “influence of monovalent cations (Na+ and K+) on activity” value (S. aureus ATCC 43300 [5]; NaCl or KCl, MIC against S. aureus ATCC 43300) was “no influence”, the “MIC value after incubation with different ions” value (S. aureus ATCC 43300 [5]; mother liquor with 50–500 mM salt, then diluted with ddH2O) was “did not change” and the hemolysis (mouse erythrocytes) was 0.19%. For the same molecule, the serum stability [6] was “strong resistance to the serum effect; also recorded: stable in serum”, the MIC (S. aureus E48; S. aureus E48, purified protein induced by shaking flasks) was 4 µg/mL (≈ 0.908 µM) and the MIC (S. aureus E48; [11]) was 1 µg/mL (≈ 0.227 µM). For the same molecule, the MIC (S. aureus ATCC 25923; S. aureus 25923, purified protein induced by shaking flasks) was 16 µg/mL (≈ 3.63 µM), the MIC (S. aureus ATCC 25923; [11]) was 16 µg/mL (≈ 3.63 µM) and the MIC (S. aureus CVCC 546; S. aureus 546, purified protein induced by shaking flasks) was 4 µg/mL (≈ 0.908 µM). The MIC (S. aureus CVCC 546; [11]) was 1 µg/mL (≈ 0.227 µM), the “gap of PAE, PN7 versus vancomycin” value (S. aureus ATCC 43300 [7]; 1× MIC) was 12 times and the “gap of PAE, PN7 versus vancomycin” value (S. aureus ATCC 43300 [7]; 2× MIC) was 3.648 times. For the same molecule, the “gap of PAE, PN7 versus vancomycin” value (S. aureus ATCC 43300 [7]; 4× MIC) was 3.513 times, the “histological morphology of mouse organs (H&E)” value (ICR mice; [12]) was “showed no difference” and the “murine behavior and body weight” value (ICR mice; [12]) was “did not observe a change in murine behavior or the loss of body weight”. The “toxicity to mice, overall” value (ICR mice; intraperitoneal injection for 6 d, observation 1 week) was “no toxicity; also recorded: no significant differences compared with the control group”, the “cell morphology by SEM” value (S. aureus ATCC 43300 [8]) was “shrinkage only appears in the cell surface” and the MIC ([9]; S. aureus 43300, purified protein induced by shaking flasks) was 4 µg/mL (≈ 0.908 µM). The MIC [9, 11] was 8 µg/mL (≈ 1.82 µM).
